Reference: patent US20100260680A1, “NOVEL BONE MASS INCREASING AGENT” (ORIENTAL YEAST CO., LTD., priority 2007, published 2010)
Bridges are numbered along the chain shown (N, C = ends). Where no end group is shown, it is not given here.

Experiments:
RANKL = target: T1, RANKL (Homo sapiens, UniProt O14788); details: Aoki et al., J Clin Invest 116: 1525, 2006; cited from earlier work
T1 sequence (O14788 140-317 limits assumed): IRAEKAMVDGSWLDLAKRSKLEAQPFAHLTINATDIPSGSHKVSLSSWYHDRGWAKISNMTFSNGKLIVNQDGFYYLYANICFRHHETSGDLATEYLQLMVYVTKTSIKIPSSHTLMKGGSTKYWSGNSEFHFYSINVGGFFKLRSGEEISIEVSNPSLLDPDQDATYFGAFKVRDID

MAP kinase p38 = test: Western blotting of p38 phosphorylation in MC3T3-E1 cells; format: cell-based, mouse; details: 200 μM peptide D
Method: MC3T3-E1 cells mixed with 10% FBS+αMEM (SIGMA) were seeded on a 6-well plate (7.5×10^4 cells/well). […] The medium was removed at the respective time points shown in the relevant figures. PBS was added to the cells, and the cells were collected with a scraper (Falcon). A cell pellet was obtained via centrifugation at 1200 rpm for 5 min at 4° C. RIPA buffer (100 μL) was added to the collected pellet, for dissolution of the cellular membrane. Further, the resultant was centrifuged under conditions of 14500 rpm for 25 min at 4° C. The supernatant was collected as a cell extract. A portion of the cell extract was used for quantification of the protein concentration with the use of a BCA protein assay kit (PIERCE). For SDS-PAGE, a sample buffer in an amount that was ¼ that of the cell extract (Fermentas) was added thereto, followed by heating at 95° C. for 5 min. The prepared sample was applied in an amount of 7.5 or 10 μg to 10% polyacrylamide gel (BioRad), followed by electrophoresis at 170 V for 1 hour. After electrophoresis, the electrophoresed sample was transferred to a PVDF membrane (Millipore) at 80 mA for 40 min. The membrane was shaken in a blocking solution (Nacalai) at room temperature for 1 hour and then a primary antibody was added thereto, followed by shaking at room temperature for 1 hour at 4° C. for 12 hours. […]

MC3T3-E1 cells = test: DNA microarray analysis of MC3T3-E1 cells; format: cell-based, mouse; details: 200 μM peptide D (acetate)
Method: MC3T3-E1 cells mixed with 10% FBS+αMEM (SIGMA) were seeded on a 10 cm dish (2×10^5 cells/well). After 12 hours, the medium was removed therefrom. […] The medium was partially removed at 12 and 96 hours, at which time TRIZOL solution (Invitrogen) (3 mL) was added to each well for cell lysis. Then, total RNA extraction was carried out by the method described in Example 15. Each extracted total RNA (2 μg) was subjected to DNA microarray analysis (Mouse Genome 430 2.0 Affymetrix). In addition, scanning was performed with a GeneChip Scanner 3000 (Affymetrix 690036) and digitalization was performed with the Gene Chip Operating Software ver. 1.4.

Substance: peptide D: cyclic peptide of SEQ ID NO: 7, 9 amino acids, two cysteine residues bound via a disulfide bond; binds to RANKL (YCWSQYLCY; disulfide 2-8 (inferred))
- binding to RANKL (RANKL): binds to RANKL
- p38 phosphorylation (MAP kinase p38; 12 hours after the addition): significant p38 phosphorylation
- p38 phosphorylation (MAP kinase p38; within a short period of time after the addition): no significant changes
- expression level of the osteocalcin (OC) gene (MC3T3-E1 cells): increased sharply
- gene expression levels of IRS-1, IGF-1, FGF receptor 2, PDGF receptor β, PDGF receptor α, CTGF, type I collagen α1 and α2 chains (MC3T3-E1 cells; 12 hours): increased significantly
- gene expression levels of IGF-2, ALP, BMP-4, OC (osteocalcin), FGF2, PDGFc, PDGFα, PDGFβ (MC3T3-E1 cells; 96 hours): increased significantly
